Measured values as given in publication PMC8100298, “Histone deacetylase inhibitor resminostat in combination with sorafenib counteracts platelet-mediated pro-tumoral effects in hepatocellular carcinoma” (Scientific Reports, 2021).
Where two headings read alike, the source gives them in different places.

Experiments:
Format in all cases: cell-based
HepG2 = assay: Proliferation assay; conditions: for EC50: Homo sapiens, 96 h, 4 days
Excerpt: (§1) The cell lines HepG2 (ACC180, RRID:CVCL_0027; DMSZ, Braunschweig Germany), SNU-475 (CRL-2236, Lot. 58483227, RRID:CVCL_0497; ATCC, Manassas, Virginia, US), SNU-387 (CRL-2237, Lot. 58483192, RRID:CVCL_0250; ATCC, Virginia, US), PLC/PRF/5 (300315, Lot. 812, RRID:CVCL_0485; CLS Cell Lines Service GmbH, Eppelheim, Germany) and HuH-7 (JCRB0403, Lot. 2272008, RRID:CVCL_0336; JCRB Cell Bank, Japan) were propagated according to the distributor’s guidelines. The authenticity of the cell lines was confirmed by short tandem repeat (STR) analysis (DSMZ, Braunschweig, Germany). Mycoplasma contamination was ruled out by PCR testing. For assays with platelet lysate (PL), FBS was substituted with 10% PLTMax Human Platelet Lysate (Cat. Nr. SCM141, Lot Number VP1602259; Millipore, Burlington, Massachusetts, US). The PL was supplemented with 20 U/ml Heparin (Heparin sodium salt from porcine intestinal mucosa, H4784-250MG; Sigma-Aldrich, Taufkirchen, Germany) to prevent coagulation.
(§2) Prior to the assay, the optimal seeding density was determined for each cell line to obtain an exponential growth during the experiment (2000 to 6000 cells per 96-well). Drug dilution series with 8 concentrations were prepared for EC50 determinations of single drugs. Three wells for each concentration were seeded (technical replicates). For drug combinations, dilution series of six concentrations for each drug alone or in combination at equal ratio were prepared. After 4 h of cell seeding, the drugs were added to the cells. Each 96-well plate contained a vehicle control (0.1% or 0.2% DMSO), a death control Ro 106-9920 (Tocris Cookson Ltd., Bristol, UK) a growth control (untreated cells compared to vehicle treated cells), and blank wells without cells. The proliferation assay was stopped after 4 days by crystal violet staining of the cells (0.5% in 20% methanol). Following extraction of the crystal violet with 8% acetic acid, the eluates were quantified photometrically at 570 nm and the reference wavelength 690 nm in an absorbance microplate reader (Tecan Sunrise; Tecan, Männedorf, Switzerland). Only readouts from 96-well plates with a Z-factor between 0.5 and 1.0 were used. Blank OD values were subtracted from the mean OD values. Nonlinear curve fitting and EC50 calculation was performed with Excel Solver.

HuH-7 = assay: Proliferation assay; conditions: for EC50: Homo sapiens, 96 h, 4 days
Excerpt: as §1, §2

PLC/PRF/5 = assay: Proliferation assay; conditions: for EC50: Homo sapiens, 96 h, 4 days
Excerpt: as §1, §2

22RV1 = assay: Efficacy screening assay; conditions: 22RV1, prostate
Experimental: (§3) The experiment was performed by Oncolead GmbH & Co. KG (Karlsfeld , Germany), based on a standardized screening procedure . Cell lines were purchased directly from the ATCC, NCI and DSMZ cell line c ollections. Cells used for the study had undergone less than 20 passages. To ensure the absence of potential contamination and wrong assignment, all cell lines were tested using a whole genome assay (Agilent, USA). All cell lines were grown as recommended by the suppliers and with addition of 100 U/mL penicillin G and 100 µg/mL; streptomycin. Cell growth and treatments were performed in Nunclon D 96 -well plates (NUNC, Germany). The optimal seeding density for each cell line was determined to ensure exponential growth for the duration of the experiment. All cells growing without anti-cancer agents were sub-conﬂuent by the end of the treatment, as determined by visual inspection.
(§4) After an initial 24 h pre-growth period, the compounds were added. The vehicle concentration […]
(§5) was 0.1% DMSO. After incubation at 37°C for 72 h, the culture medium was aspirated, and the cells were precipitated by the addition of 10% trichloroacetic acid (Sigma-Aldrich, Missouri, US). After overnight incubation at 4°C, the plates were washed three times with deionized water. The precipitates were then stained with SRB (0.4% wt/v sulforhodamine B solution in 1% acetic acid, Sigma-Aldrich, Missouri, US). Afterwards, the plates were washed six times with 1% acetic acid to remove unbound stain. After drying the plates at room temperature, the bound SRB was solubilized with 10 mM Tris base and the optical density was measured at 520 nm using a Victor2 plate reader (Perkin Elmer, Germany). Blank OD values were subtracted from mean OD values for each concentration. The nonlinear curve ﬁtting and EC50 calculations were per formed using XLﬁt and algorithm “205” (ID Business […]
(§6) one-way ANOVA and multiple comparison (Dunnett) was performed for compound treatments compared to vehicle control. The adjusted p-values with 95% confidence interval were reported as significant. For comparison of EC50 values in Figure 1F, one-way ANOVA with multiple comparison testing (Tukey) was performed. Multiplicity adjusted p -values for the EC50 with sorafenib versus resminostat for each cell line and comparison between cell lines for sorafenib are presented (95% confidence interval for significance testing). For comparison of EC50 data in Figure 2B, one-way ANOVA with multiple comparison testing (Tukey) was performed. Multiplicity adjusted p-values with 95% confidence interval was applied. For the invasion assays in Figure 4, one-way ANOVA with multiple comparison testing (Tukey) was performed. Multiplicity adjusted p-values with 95% confidence interval was applied. The adjusted p-values comparing vehicle control without vs. with platelets and compound

786O = assay: Efficacy screening assay; conditions: kidney
Experimental: as §3, §4, §5, §6

BT20 = assay: Efficacy screening assay; conditions: BT20, breast
Experimental: as §3, §4, §5, §6

BXPC3 = assay: Efficacy screening assay; conditions: BXPC3, pancreas
Experimental: as §3, §4, §5, §6

C33A = assay: Efficacy screening assay; conditions: Homo sapiens, C-33-A, cervix, 72 h
Experimental: as §3, §4, §5, §6

CACO2 = assay: Efficacy screening assay; conditions: CACO2, colon
Experimental: as §3, §4, §5, §6

## CN(C)Cc1ccc(S(=O)(=O)n2ccc(/C=C/C(=O)NO)c2)cc1 [resminostat, Resminostat]
HepG2; HepG2, ratio of PL/FBS EC50s
  Ratio PL/FBS: 1.0
HepG2; HepG2, fetal bovine serum, read-out: EC50 in FBS
  EC50: 500 ± 100 nM
HepG2; HepG2, platelet lysate, read-out: EC50 in PL
  EC50: 500 ± 300 nM
HuH-7; HuH-7, fetal bovine serum, read-out: EC50 in FBS
  EC50: 1000 ± 300 nM
HuH-7; HuH-7, platelet lysate, read-out: EC50 in PL
  EC50: 1300 ± 200 nM
HuH-7; HuH-7, ratio of PL/FBS EC50s
  Ratio PL/FBS: 1.3
PLC/PRF/5; PLC/PRF/5, fetal bovine serum, read-out: EC50 in FBS
  EC50: 1100 ± 200 nM
PLC/PRF/5; PLC/PRF/5, platelet lysate, read-out: EC50 in PL
  EC50: 900 ± 100 nM
PLC/PRF/5; PLC/PRF/5, platelet lysate vs FBS dose-response curves (Fig. 2A)
  effect of platelet factors on potency and efficacy: unaffected
PLC/PRF/5; PLC/PRF/5, ratio of PL/FBS EC50s
  Ratio PL/FBS: 0.8
22RV1; 72 h, read-out: EC50
  EC50: 1450 nM
22RV1; Homo sapiens, 22Rv1, 72 h, log of EC50, negative, read-out: log(EC50) (converted)
  EC50: 1450 nM
22RV1; Homo sapiens, 22Rv1, 72 h, read-out: EC50
  EC50: 1450 nM
786O; Homo sapiens, 786-0, 72 h, log of EC50, negative, read-out: log(EC50) (converted)
  EC50: 2570 nM
786O; Homo sapiens, 786-0, 72 h, read-out: EC50
  EC50: 2540 nM
786O; 72 h, read-out: EC50
  EC50: 2540 nM
BT20; 72 h, read-out: EC50
  EC50: 1320 nM
BT20; Homo sapiens, BT-20, 72 h, log of EC50, negative, read-out: log(EC50) (converted)
  EC50: 1320 nM
BT20; Homo sapiens, BT-20, 72 h, read-out: EC50
  EC50: 1320 nM
BXPC3; 72 h, read-out: EC50
  EC50: 4.23 µM
BXPC3; Homo sapiens, BXPC-3, 72 h, log of EC50, negative, read-out: log(EC50) (converted)
  EC50: 4.27 µM
BXPC3; Homo sapiens, BXPC-3, 72 h, read-out: EC50
  EC50: 4.22 µM
C33A; log of EC50, negative, read-out: log(EC50) (converted)
  EC50: 1550 nM
C33A; read-out: EC50
  EC50: 1550 nM
CACO2; 72 h, read-out: EC50
  EC50: 1780 nM
CACO2; Homo sapiens, Caco-2, 72 h, log of EC50, negative, read-out: log(EC50) (converted)
  EC50: 1780 nM
CACO2; Homo sapiens, Caco-2, 72 h, read-out: EC50
  EC50: 1780 nM
